# Results reported in patent publication US20200024278A1, “COMPOSITION COMPRISING ANTIBIOTIC COMPOUND AND AN HETEROCYCLIC COMPOUND AND THEIR USE IN PREVENTING OR TREATING BACTERIAL INFECTIONS” (MUTABILIS, priority 2016, published 2020).
# Like-named read-outs stand apart in the source and are kept apart here.
# What was measured:
# Test in all cases: MIC, broth microdilution (CLSI), substance alone or ATB combined with compound at 4 or 8 μg/mL
# [1] = test system: ECL P99; assay type: cell-based, E. cloacae; conditions: ECL P99
# Summary of the method: (§1)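 CLSI broth microdilution in cation-adjusted Mueller-Hinton broth, 5·10^5 CFU/mL log-phase inoculum, 16-20 h at 35 °C in ambient air. Fosfomycin assays supplemented with 25 μg/ml glucose-6-phosphate.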
# [2] = test system: PAE 105250; assay type: cell-based, P. aeruginosa; conditions: PAE 105250
# Summary of the method: as §1
# [3] = test system: PAE UFR48; assay type: cell-based, P. aeruginosa; conditions: PAE UFR48; for MIC: Pseudomonas aeruginosa
# Summary of the method: as §1
# [4] = test system: PAE UFR90; assay type: cell-based, P. aeruginosa; conditions: PAE UFR90; for MIC: Pseudomonas aeruginosa
# Summary of the method: as §1
# [5] = test system: SAU 29213; assay type: cell-based, S. aureus; conditions: SAU 29213
# Summary of the method: as §1
# [6] = test system: SPN 49619; assay type: cell-based, S. pneumoniae; conditions: SPN 49619
# Summary of the method: as §1
# [7] = antibiotic alone, read-out: MIC ATB alone
structure (smiles),measurement,setting,value
"NCC[C@H](O)C(=O)N[C@@H]1C[C@H](N)[C@@H](O[C@H]2O[C@H](CN)[C@@H](O)[C@H](O)[C@H]2O)[C@H](O)[C@H]1O[C@H]1O[C@H](CO)[C@@H](O)[C@H](N)[C@H]1O [AN, Amikacin, reference compound]",MIC ATB combined with Example 13 @8 μg/ml,[1]; with Example 13 at 8 μg/ml,0.125 µg/mL
same,MIC ATB combined with Example 14 @8 μg/ml,[1]; with Example 14 at 8 μg/ml,<0.031 µg/mL
same,MIC ATB combined with Example 15 @4 μgml,[1]; with Example 15 at 4 μg/ml,<=0.031 μg/mL
same,MIC ATB combined with Example 16 @4 μg/ml,[1]; with Example 16 at 4 μg/ml,<0.031 µg/mL
same,MIC,"[1]; Enterobacter cloacae, antibiotic alone, read-out: MIC ATB alone",0.063 µg/mL
same,MIC ATB combined with Example 1 @8 μg/ml,[2]; with Example 1 @8 μg/ml,<0.031 µg/mL
same,MIC ATB combined with Example 1 @8 μg/ml,[2]; with Example 1 at 8 μg/ml,<0.031 µg/mL
same,MIC ATB combined with Example 7 @8 μgml,[2]; with Example 7 at 8 μg/ml,2 µg/mL
same,MIC ATB combined with Example 9 @4 μg/ml,[2]; with Example 9 @4 μg/ml,2 µg/mL
same,MIC ATB combined with Example 9 @4 μg/ml,[2]; with Example 9 at 4 μg/ml,2 µg/mL
same,MIC ATB combined with Example 11 @8 μg/ml,[2]; with Example 11 at 8 μg/ml,2 µg/mL
same,MIC ATB combined with Example 12 @8 μg/ml,[2]; with Example 12 at 8 μg/ml,2 µg/mL
same,MIC ATB combined with Example 13 @8 μg/ml,[2]; with Example 13 at 8 μg/ml,2 µg/mL
same,MIC ATB combined with Example 14 @8 μg/ml,[2]; with Example 14 at 8 μg/ml,1 µg/mL
same,MIC ATB combined with Example 15 @4 μgml,[2]; with Example 15 at 4 μg/ml,2 µg/mL
same,MIC ATB combined with Example 16 @4 μg/ml,[2]; with Example 16 at 4 μg/ml,1 µg/mL
same,MIC,"[2]; Pseudomonas aeruginosa, antibiotic alone, read-out: MIC ATB alone",2 µg/mL
same,MIC ATB combined with Example 1 @8 μg/ml,[3]; with Example 1 @8 μg/ml,<0.031 µg/mL
same,MIC ATB combined with Example 1 @8 μg/ml,[3]; with Example 1 at 8 μg/ml,<0.031 µg/mL
same,MIC ATB combined with Example 7 @8 μgml,[3]; with Example 7 at 8 μg/ml,32 µg/mL
same,MIC ATB combined with Example 9 @4 μg/ml,[3]; with Example 9 @4 μg/ml,32 µg/mL
same,MIC ATB combined with Example 9 @4 μg/ml,[3]; with Example 9 at 4 μg/ml,32 µg/mL
same,MIC ATB combined with Example 11 @8 μg/ml,[3]; with Example 11 at 8 μg/ml,>32 µg/mL
same,MIC ATB combined with Example 12 @8 μg/ml,[3]; with Example 12 at 8 μg/ml,32 µg/mL
same,MIC ATB combined with Example 13 @8 μg/ml,[3]; with Example 13 at 8 μg/ml,32 µg/mL
same,MIC ATB combined with Example 14 @8 μg/ml,[3]; with Example 14 at 8 μg/ml,32 µg/mL
same,MIC ATB combined with Example 15 @4 μgml,[3]; with Example 15 at 4 μg/ml,>32 µg/mL
same,MIC ATB combined with Example 16 @4 μg/ml,[3]; with Example 16 at 4 μg/ml,32 µg/mL
same,MIC,[3]; [7],32 µg/mL
same,MIC,"[3]; substance alone, read-out: MIC",32 µg/mL
same,MIC ATB combined with Example 1 @8 μg/ml,[4]; with Example 1 @8 μg/ml,<0.031 µg/mL
same,MIC ATB combined with Example 1 @8 μg/ml,[4]; with Example 1 at 8 μg/ml,<0.031 µg/mL
same,MIC ATB combined with Example 7 @8 μgml,[4]; with Example 7 at 8 μg/ml,2 µg/mL
same,MIC ATB combined with Example 9 @4 μg/ml,[4]; with Example 9 @4 μg/ml,2 µg/mL
same,MIC ATB combined with Example 9 @4 μg/ml,[4]; with Example 9 at 4 μg/ml,2 µg/mL
same,MIC ATB combined with Example 11 @8 μg/ml,[4]; with Example 11 at 8 μg/ml,2 µg/mL
same,MIC ATB combined with Example 12 @8 μg/ml,[4]; with Example 12 at 8 μg/ml,2 µg/mL
same,MIC ATB combined with Example 13 @8 μg/ml,[4]; with Example 13 at 8 μg/ml,2 µg/mL
same,MIC ATB combined with Example 14 @8 μg/ml,[4]; with Example 14 at 8 μg/ml,2 µg/mL
same,MIC ATB combined with Example 15 @4 μgml,[4]; with Example 15 at 4 μg/ml,2 µg/mL
same,MIC ATB combined with Example 16 @4 μg/ml,[4]; with Example 16 at 4 μg/ml,2 µg/mL
same,MIC,[4]; [7],2 µg/mL
same,MIC,"[4]; substance alone, read-out: MIC",2 µg/mL
same,MIC ATB combined with Example 1 @8 μg/ml,[5]; with Example 1 @8 μg/ml,4 µg/mL
same,MIC ATB combined with Example 1 @8 μg/ml,[5]; with Example 1 at 8 μg/ml,4 µg/mL
same,MIC ATB combined with Example 7 @8 μgml,[5]; with Example 7 at 8 μg/ml,2 µg/mL
same,MIC ATB combined with Example 9 @4 μg/ml,[5]; with Example 9 @4 μg/ml,<0.031 µg/mL
same,MIC ATB combined with Example 9 @4 μg/ml,[5]; with Example 9 at 4 μg/ml,<0.031 µg/mL
same,MIC ATB combined with Example 11 @8 μg/ml,[5]; with Example 11 at 8 μg/ml,<0.031 µg/mL
same,MIC ATB combined with Example 12 @8 μg/ml,[5]; with Example 12 at 8 μg/ml,<0.031 µg/mL
same,MIC ATB combined with Example 13 @8 μg/ml,[5]; with Example 13 at 8 μg/ml,4 µg/mL
same,MIC ATB combined with Example 14 @8 μg/ml,[5]; with Example 14 at 8 μg/ml,<0.031 µg/mL
same,MIC ATB combined with Example 15 @4 μgml,[5]; with Example 15 at 4 μg/ml,<0.031 µg/mL
same,MIC ATB combined with Example 16 @4 μg/ml,[5]; with Example 16 at 4 μg/ml,<0.031 µg/mL
same,MIC,"[5]; Staphylococcus aureus, antibiotic alone, read-out: MIC ATB alone",2 µg/mL
same,MIC ATB combined with Example 1 @8 μg/ml,[6]; with Example 1 @8 μg/ml,32 µg/mL
same,MIC ATB combined with Example 1 @8 μg/ml,[6]; with Example 1 at 8 μg/ml,32 µg/mL
same,MIC ATB combined with Example 7 @8 μgml,[6]; with Example 7 at 8 μg/ml,>32 µg/mL
same,MIC ATB combined with Example 9 @4 μg/ml,[6]; with Example 9 @4 μg/ml,<0.031 µg/mL
same,MIC ATB combined with Example 9 @4 μg/ml,[6]; with Example 9 at 4 μg/ml,<0.031 µg/mL
same,MIC ATB combined with Example 11 @8 μg/ml,[6]; with Example 11 at 8 μg/ml,32 µg/mL
same,MIC ATB combined with Example 12 @8 μg/ml,[6]; with Example 12 at 8 μg/ml,4 µg/mL
same,MIC ATB combined with Example 13 @8 μg/ml,[6]; with Example 13 at 8 μg/ml,>32 µg/mL
same,MIC ATB combined with Example 14 @8 μg/ml,[6]; with Example 14 at 8 μg/ml,4 µg/mL
same,MIC ATB combined with Example 15 @4 μgml,[6]; with Example 15 at 4 μg/ml,32 µg/mL
same,MIC ATB combined with Example 16 @4 μg/ml,[6]; with Example 16 at 4 μg/ml,16 µg/mL
same,MIC,"[6]; Streptococcus pneumoniae, antibiotic alone, read-out: MIC ATB alone",32 µg/mL
